Data on 28 compounds can be found in patent publication US11912686B2 (Gilead Sciences, Inc., priority 2020, dated 2024).

Structures are written as SMILES.

As usually defined, the EC50 is the concentration giving half of the maximal effect.

The experiment deals with human LPAR1 (Homo sapiens (Human), UniProt Q92633). In words: LPAR1 intracellular calcium mobilization assay (antagonist mode, FLIPR). It is filed as cell-based. Particulars: CHO-K1 EDG2 cells expressing human LPAR1, LPA 18:2 at EC80 (100 nM), test compound 0.5 nM to 10 μM.
Chain of human LPAR1 (Q92633 whole entry): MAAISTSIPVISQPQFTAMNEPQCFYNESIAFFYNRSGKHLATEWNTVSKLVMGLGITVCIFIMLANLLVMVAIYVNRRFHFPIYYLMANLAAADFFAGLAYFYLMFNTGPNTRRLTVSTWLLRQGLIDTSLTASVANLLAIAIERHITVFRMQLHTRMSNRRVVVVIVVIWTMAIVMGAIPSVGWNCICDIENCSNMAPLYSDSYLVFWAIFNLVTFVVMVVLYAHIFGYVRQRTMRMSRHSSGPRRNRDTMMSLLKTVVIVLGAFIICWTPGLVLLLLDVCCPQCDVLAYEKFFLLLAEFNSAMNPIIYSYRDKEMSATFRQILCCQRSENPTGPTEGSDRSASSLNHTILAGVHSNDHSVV
In the case of `COC(=O)Nc1ccc(-c2nnn(C)c2NC(=O)O[C@H](CF)c2ccccc2)cc1` [Compound 18, (S)-2-fluoro-1-phenylethyl (4-(4-((methoxycarbonyl)amino)phenyl)-1-methyl-1H-1,2,3-triazol-5-yl)carbamate], the EC50 worked out at 1130 nM. With `C[C@@H](OC(=O)Nc1c(-c2ccc(NC(=O)c3ccc(Cl)nc3F)cn2)nnn1C)c1cc(F)cnc1F` [Compound 262, (R)-1-(2,5-difluoropyridin-3-yl)ethyl (4-(5-(6-chloro-2-fluoronicotinamido)pyridin-2-yl)-1-methyl-1H-1,2,3-triazol-5-yl)carbamate], the EC50 was found to be 23.7 nM. For `C[C@@H](OC(=O)Nc1c(-c2ccc(NC(=O)C3CCO3)cn2)nnn1C)c1cccnc1Cl` (stereo partly drawn) [Compound 54, (R)-1-(2-chloropyridin-3-yl)ethyl (1-methyl-4-(5-(oxetane-2-carboxamido)pyridin-2-yl)-1H-1,2,3-triazol-5-yl)carbamate] the value was 7860 nM; for `C[C@@H](OC(=O)Nc1c(-c2ccc(NC(=O)C3(CN)CC(F)(F)C3)cn2)nnn1C)c1cc(F)cnc1F` [Compound 301, (R)-1-(2,5-difluoropyridin-3-yl)ethyl (4-(5-(1-(aminomethyl)-3,3-difluorocyclobutane-1-carboxamido)pyridin-2-yl)-1-methyl-1H-1,2,3-triazol-5-yl)carbamate], 66.9 nM. As for `C[C@@H](OC(=O)Nc1c(-c2ccc(NC(=O)c3cc(C#N)no3)cn2)nnn1C)c1cc(F)cnc1F` [Compound 258, (R)-1-(2,5-difluoropyridin-3-yl)ethyl (4-(5-(3-cyanoisoxazole-5-carboxamido)pyridin-2-yl)-1-methyl-1H-1,2,3-triazol-5-yl)carbamate], the EC50 is 19.3 nM. As to `C[C@@H](OC(=O)Nc1c(-c2ccc(NC(=O)C#CC(C)(C)O)cn2)nnn1C)c1cccnc1Cl` [Compound 111, (R)-1-(2-chloropyridin-3-yl)ethyl (4-(5-(4-hydroxy-4-methylpent-2-ynamido)pyridin-2-yl)-1-methyl-1H-1,2,3-triazol-5-yl)carbamate], the EC50 was determined as 191 nM. The figure for `C[C@@H](OC(=O)Nc1c(-c2ccc(NC(=O)c3ccc(C(F)(F)F)nc3)cn2)nnn1C)c1cc(F)cnc1F` [Compound 242, (R)-1-(2,5-difluoropyridin-3-yl)ethyl (1-methyl-4-(5-(6-(trifluoromethyl)nicotinamido)pyridin-2-yl)-1H-1,2,3-triazol-5-yl)carbamate] is 63.3 nM.

Consider `C[C@@H](OC(=O)Nc1c(-c2ccc(NC(=O)C3(C#N)CNC3)cn2)nnn1C)c1cc(F)cnc1F` [Compound 297, (R)-1-(2,5-difluoropyridin-3-yl)ethyl (4-(5-(3-cyanoazetidine-3-carboxamido)pyridin-2-yl)-1-methyl-1H-1,2,3-triazol-5-yl)carbamate], for which the EC50 was 354 nM. On to `C[C@@H](OC(=O)Nc1c(-c2ccc(NC(=O)[C@@H]3C[C@@H]3C#N)cn2)nnn1C)c1cccnc1Cl` [Compound 137, (R)-1-(2-chloropyridin-3-yl)ethyl (4-(5-((1R,2S)-2-cyanocyclopropane-1-carboxamido)pyridin-2-yl)-1-methyl-1H-1,2,3-triazol-5-yl)carbamate], for which the EC50 was 1090 nM. For `C[C@@H](OC(=O)Nc1c(-c2ccc(NC(=O)C3(C(F)(F)F)CC4(CCC4)C3)cn2)nnn1C)c1cccnc1Cl` [Compound 78, (R)-1-(2-chloropyridin-3-yl)ethyl (1-methyl-4-(5-(2-(trifluoromethyl)spiro[3.3]heptane-2-carboxamido)pyridin-2-yl)-1H-1,2,3-triazol-5-yl)carbamate] the value was 83.6 nM; for `C[C@@H](OC(=O)Nc1c(-c2ccc(NC(=O)N3CCCC3)cn2)nnn1C)c1cccnc1Cl` [Compound 194, (R)-1-(2-chloropyridin-3-yl)ethyl (1-methyl-4-(5-(pyrrolidine-1-carboxamido)pyridin-2-yl)-1H-1,2,3-triazol-5-yl)carbamate], 832 nM. Consider `C[C@@H](OC(=O)Nc1c(-c2ccc(NC(=O)C3CS(=O)(=O)C3)cn2)nnn1C)c1cccnc1Cl` [Compound 43, (R)-1-(2-chloropyridin-3-yl)ethyl (4-(5-(1,1-dioxidothietane-3-carboxamido)pyridin-2-yl)-1-methyl-1H-1,2,3-triazol-5-yl)carbamate], for which the EC50 was 497 nM.

For the compound `C[C@@H](OC(=O)Nc1c(-c2ccc(NC(=O)C3(CO)CC(F)(F)C3)cn2)nnn1C)c1cccnc1Cl` [Compound 200, (R)-1-(2-chloropyridin-3-yl)ethyl (4-(5-(3,3-difluoro-1-(hydroxymethyl)cyclobutane-1-carboxamido)pyridin-2-yl)-1-methyl-1H-1,2,3-triazol-5-yl)carbamate], the EC50 worked out at 94 nM.

As to `C[C@@H](OC(=O)Nc1c(-c2ccc(NC(=O)c3ccccc3)cn2)nnn1C)c1cccnc1Cl` [Compound 29, (R)-1-(2-chloropyridin-3-yl)ethyl (4-(5-benzamidopyridin-2-yl)-1-methyl-1H-1,2,3-triazol-5-yl)carbamate], the 50% effective concentration (EC50) turned out to be 261 nM. As for `C[C@@H](OC(=O)Nc1c(-c2ccc(NC(=O)C3(C)CC3)cn2)nnn1C)c1cccnc1Cl` [Compound 32, (R)-1-(2-chloropyridin-3-yl)ethyl (1-methyl-4-(5-(1-methylcyclopropane-1-carboxamido)pyridin-2-yl)-1H-1,2,3-triazol-5-yl)carbamate], the EC50 was 799 nM.

`C[C@@H](OC(=O)Nc1c(-c2ccc(NC(=O)c3cnc(C4CC4)o3)cn2)nnn1C)c1cc(F)cnc1F` [Compound 280, (R)-1-(2,5-difluoropyridin-3-yl)ethyl (4-(5-(2-cyclopropyloxazole-5-carboxamido)pyridin-2-yl)-1-methyl-1H-1,2,3-triazol-5-yl)carbamate]: the EC50 amounted to 98.7 nM. For `C[C@@H](OC(=O)Nc1c(-c2ccc(NC(=O)[C@]3(C#N)C[C@H]3F)cn2)nnn1C)c1cc(F)cnc1F` [Compound 269, (R)-1-(2,5-difluoropyridin-3-yl)ethyl (4-(5-((1R,2R)-1-cyano-2-fluorocyclopropane-1-carboxamido)pyridin-2-yl)-1-methyl-1H-1,2,3-triazol-5-yl)carbamate], the concentration for a half-maximal effect (EC50) is 127 nM. As to `C[C@@H](OC(=O)Nc1c(-c2ccc(NC(=O)C3COC3)cn2)nnn1C)c1cccnc1Cl` [Compound 57, (R)-1-(2-chloropyridin-3-yl)ethyl (1-methyl-4-(5-(oxetane-3-carboxamido)pyridin-2-yl)-1H-1,2,3-triazol-5-yl)carbamate], the EC50 was 339 nM. The figure for `CO[C@@H]1C[C@H]1C(=O)Nc1ccc(-c2nnn(C)c2NC(=O)O[C@H](C)c2cc(F)cnc2F)nc1` (mixture of isomers) [Compound 210, (R)-1-(2,5-difluoropyridin-3-yl)ethyl (4-(5-((1RS,2RS)-2-methoxycyclopropane-1-carboxamido)pyridin-2-yl)-1-methyl-1H-1,2,3-triazol-5-yl)carbamate] is 243 nM.

In the case of `C[C@@H](OC(=O)Nc1c(-c2ccc(NC(=O)[C@@H]3C[C@H]3C3CC3)cn2)nnn1C)c1cc(F)cnc1F` [Compound 267, (R)-1-(2,5-difluoropyridin-3-yl)ethyl (4-(5-((1S,2R)[1,1′-bi(cyclopropane)]-2-carboxamido)pyridin-2-yl)-1-methyl-1H-1,2,3-triazol-5-yl)carbamate], the EC50 was 588 nM. On to `C[C@H](C#N)C(=O)Nc1ccc(-c2nnn(C)c2NC(=O)O[C@H](C)c2cccnc2Cl)nc1` [Compound 203, (R)-1-(2-chloropyridin-3-yl)ethyl (4-(5-((R)-2-cyanopropanamido)pyridin-2-yl)-1-methyl-1H-1,2,3-triazol-5-yl)carbamate], for which the EC50 came out at 94.8 nM. Turning to `C[C@@H](OC(=O)Nc1c(-c2ccc(NC(=O)C3CC3C#N)cn2)nnn1C)c1cccnc1Cl` (stereo partly drawn) [Compound 130, (R)-1-(2-chloropyridin-3-yl)ethyl (4-(5-(2-cyanocyclopropane-1-carboxamido)pyridin-2-yl)-1-methyl-1H-1,2,3-triazol-5-yl)carbamate], the EC50 was determined as 271 nM. `C[C@@H](OC(=O)Nc1c(-c2ccc(NC(=O)c3ccc(C(F)(F)F)nc3F)cn2)nnn1C)c1cc(F)cnc1F` [Compound 254, (R)-1-(2,5-difluoropyridin-3-yl)ethyl (4-(5-(2-fluoro-6-(trifluoromethyl)nicotinamido)pyridin-2-yl)-1-methyl-1H-1,2,3-triazol-5-yl)carbamate]: the EC50 amounted to 18.1 nM.

As to `C[C@@H](OC(=O)Nc1c(-c2ccc(NC(=O)[C@@H]3C[C@H]3C#N)cn2)nnn1C)c1cccnc1Cl` [Compound 51, (R)-1-(2-chloropyridin-3-yl)ethyl (4-(5-((1R,2R)-2-cyanocyclopropane-1-carboxamido)pyridin-2-yl)-1-methyl-1H-1,2,3-triazol-5-yl)carbamate], the EC50 worked out at 88.7 nM. `C[C@@H](OC(=O)Nc1c(-c2ccc(NC(=O)c3ccnc(F)c3F)cn2)nnn1C)c1cc(F)cnc1F` [Compound 243, (R)-1-(2,5-difluoropyridin-3-yl)ethyl (4-(5-(2,3-difluoroisonicotinamido)pyridin-2-yl)-1-methyl-1H-1,2,3-triazol-5-yl)carbamate]: the EC50 amounted to 71.9 nM. Turning to `C[C@@H](OC(=O)Nc1c(-c2ccc(NC(=O)[C@]3(C)C[C@@H](C#N)C3)cn2)nnn1C)c1cccnc1Cl` [Compound 122, (R)-1-(2-chloropyridin-3-yl)ethyl (4-(5-((1r,3R)-3-cyano-1-methylcyclobutane-1-carboxamido)pyridin-2-yl)-1-methyl-1H-1,2,3-triazol-5-yl)carbamate], the 50% effective concentration (EC50) turned out to be 123 nM. In the case of `C[C@@H](OC(=O)Nc1c(-c2ccc(NC(=O)N3CCC3)cn2)nnn1C)c1cccnc1Cl` [Compound 188, (R)-1-(2-chloropyridin-3-yl)ethyl (4-(5-(azetidine-1-carboxamido)pyridin-2-yl)-1-methyl-1H-1,2,3-triazol-5-yl)carbamate], the EC50 came to 452 nM. As for `C[C@@H](OC(=O)Nc1c(-c2ccc(NC(=O)c3cc(C(F)(F)F)cnc3F)cn2)nnn1C)c1cc(F)cnc1F` [Compound 275, (R)-1-(2,5-difluoropyridin-3-yl)ethyl (4-(5-(2-fluoro-5-(trifluoromethyl)nicotinamido)pyridin-2-yl)-1-methyl-1H-1,2,3-triazol-5-yl)carbamate], the concentration for a half-maximal effect (EC50) was found to be 241 nM.
